In the assay the test system is HT-29 cells. The assay is described as follows: HT-29 necroptosis cell viability assay (TNF-α/SMAC mimetic/zVAD-FMK, CellTiter-Glo). It counts as cell-based. The note with it: Homo sapiens. Summed up:
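HT-29 cells (~5,000/well, overnight) in FBS-free McCoy's 5A with TNF-α 10 ng/ml, SMAC mimetic 6 μM and zVAD-FMK 10 μM plus 10-point 1:3 compound titration, 20 h at 37°C. ATP measured by CellTiter-Glo luminescence; IC50 as geometric mean of duplicates.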

Where [1] appears, read: HT-29, HT-29 necroptosis cell viability, IC50 class symbols, read-out: Activity.
[2] abbreviates: HT-29, HT-29 necroptosis cell viability assay, class symbols for IC50, read-out: Activity.
Setting [3] is: HT-29, HT-29 cells, necroptosis induced by TNF-α/SMAC mimetic/zVAD-FMK, CellTiter-Glo, read-out: Activity (IC50 class).
The mark [4] stands for this setting: HT-29 cells stimulated with TNF-α (10 ng/ml), SMAC mimetic (6 μM) and zVAD-FMK (10 μM), 20 hours, CellTiter-Glo ATP luminescence, geometric mean IC50 from 10 points, read-out: Activity.

This note sets out measurements from patent publication US20250179061A1 (SIRONAX LTD., priority 2022, published 2025).

pIC50: −log10 of the molar value. Like-named read-outs stand apart in the source and are kept apart here.

On to `CCOC1CN(c2cc(Oc3ccc(-n4nc5n(c4=O)C(c4ccccc4)CC5)cc3)ccn2)C1` (centres unmarked) [Example 301, 2-[4-[[2-(3-ethoxyazetidin-1-yl)-4-pyridyl]oxy]phenyl]-5-phenyl-6,7-dihydro-5H-pyrrolo[2,1-c][1,2,4]triazol-3-one], for which the pIC50 under setting [1] is greater than 7.00.
For `Cc1ccc(C#N)n1Cc1ccc(-n2ncn(Cc3c(F)cccc3F)c2=O)cc1` [Example 206, 1-(4-(4-(2,6-difluorobenzyl)-5-oxo-4,5-dihydro-1H-1,2,4-triazol-1-yl)benzyl)-5-methyl-1H-pyrrole-2-carbonitrile], under setting [2], the pIC50 is 6.00 to 7.00.
With `Cc1c(CC#N)noc1Oc1ccc(-n2ncn(Cc3c(F)cccc3F)c2=O)cc1F` [Example 650, 2-(5-(4-(4-(2,6-difluorobenzyl)-5-oxo-4,5-dihydro-1H-1,2,4-triazol-1-yl)-2-fluorophenoxy)-4-methylisoxazol-3-yl)acetonitrile], the pIC50 under setting [3] is greater than 7.00.
As to `Cc1nc(N2CC(C)(N)C2)sc1Oc1ccc(-n2ncn(Cc3c(F)cccc3F)c2=O)cc1F` [Example 451, 2-(4-((2-(3-amino-3-methylazetidin-1-yl)-4-methylthiazol-5-yl)oxy)-3-fluorophenyl)-4-(2,6-difluorobenzyl)-2,4-dihydro-3H-1,2,4-triazol-3-one], the pIC50 under setting [1] is greater than 7.00.
On to `Cc1nc(Oc2ccc(-n3ncn(Cc4c(F)cccc4F)c3=O)c(F)c2)n(C)c1C(N)=O` [Example 115, 2-(4-(4-(2,6-difluorobenzyl)-5-oxo-4,5-dihydro-1H-1,2,4-triazol-1-yl)-3-fluorophenoxy)-1,4-dimethyl-1H-imidazole-5-carboxamide], for which the pIC50 under setting [2] was 5.00 to 6.00.
The same measure, in the same setting: with `CC(=O)c1nc(C)c(Oc2ccc(-n3ncn(Cc4c(F)cccc4F)c3=O)cc2F)n1C` [Example 174, 2-(4-((2-acetyl-1,4-dimethyl-1H-imidazol-5-yl)oxy)-3-fluorophenyl)-4-(2,6-difluorobenzyl)-2,4-dihydro-3H-1,2,4-triazol-3-one] the figure was greater than 7.00.
On to `CCOC1CN(c2nc(C)c(Oc3ccc(-n4ncn(Cc5c(F)cccc5F)c4=O)cc3)s2)C1` [Example 74, 4-(2,6-difluorobenzyl)-2-(4-((2-(3-ethoxyazetidin-1-yl)-4-methylthiazol-5-yl)oxy)phenyl)-2,4-dihydro-3H-1,2,4-triazol-3-one], for which, under setting [4], the pIC50 is greater than 7.00.
As to `Cc1ncn(Cc2ccc(-n3ncn(Cc4c(F)cccc4F)c3=O)cc2)c1C#N` [Example 657, 3-[[4-[4-[(2,6-difluorophenyl)methyl]-5-oxo-1,2,4-triazol-1-yl]phenyl]methyl]-5-methyl-imidazole-4-carbonitrile], the pIC50 under setting [3] is greater than 7.00.
With `COC(=O)c1cnc(Oc2ccc(-n3ncn(Cc4c(F)cccc4F)c3=O)cc2F)n1C` [Example 173, methyl 2-(4-(4-(2,6-difluorobenzyl)-5-oxo-4,5-dihydro-1H-1,2,4-triazol-1-yl)-2-fluorophenoxy)-1-methyl-1H-imidazole-5-carboxylate], the pIC50 under setting [2] was 6.00 to 7.00.
`Cc1nc(NC2=NC(C)(C)CO2)sc1Oc1ccc(-n2ncn(Cc3c(F)cccc3F)c2=O)cc1Cl` [Example 298, 2-(3-chloro-4-((2-((4,4-dimethyl-4,5-dihydrooxazol-2-yl)amino)-4-methylthiazol-5-yl)oxy)phenyl)-4-(2,6-difluorobenzyl)-2,4-dihydro-3H-1,2,4-triazol-3-one]: the pIC50 under setting [1] was greater than 7.00.
Still for that read-out and setting: with `CC(C)(C)OC(=O)NC1CN(c2cc(Oc3ccc(-n4ncn(Cc5c(F)cccc5F)c4=O)cc3)ccn2)C1` [Example 327, tert-butyl (1-(4-(4-(4-(2,6-difluorobenzyl)-5-oxo-4,5-dihydro-1H-1,2,4-triazol-1-yl)phenoxy)pyridin-2-yl)azetidin-3-yl)carbamate] the figure was greater than 7.00.
As to `Cc1nn(Cc2ccc(-n3ncn(Cc4c(F)cccc4F)c3=O)cc2)cc1Br` [Example 184, 2-(4-((4-bromo-3-methyl-1H-pyrazol-1-yl)methyl)phenyl)-4-(2,6-difluorobenzyl)-2,4-dihydro-3H-1,2,4-triazol-3-one], under setting [2], the pIC50 is greater than 7.00.
Same read-out and setting: with `COc1cc(S(=O)(=O)c2ccc(-n3nc4n(c3=O)C(c3ccccc3)CC4)cc2)ccn1` (centres unmarked) [Example 617, 2-(4-((2-methoxypyridin-4-yl)sulfonyl)phenyl)-5-phenyl-2,5,6,7-tetrahydro-3H-pyrrolo[2,1-c][1,2,4]triazol-3-one] the figure was greater than 7.00.
`COC(=O)c1nc(C)c(Oc2ccc(-n3ncn(Cc4c(F)cccc4C#N)c3=O)cc2F)s1` [Example 106, methyl 5-(4-(4-(2-cyano-6-fluorobenzyl)-5-oxo-4,5-dihydro-1H-1,2,4-triazol-1-yl)-2-fluorophenoxy)-4-methylthiazole-2-carboxylate]: the pIC50 under setting [4] is greater than 7.00.
For the compound `O=c1n(Cc2c(F)cccc2F)cnn1C1CCC(Oc2ccccc2)C1` (centres unmarked) [Example 161, 4-(2,6-difluorobenzyl)-2-(3-phenoxycyclopentyl)-2,4-dihydro-3H-1,2,4-triazol-3-one], the pIC50 under setting [2] was 5.00 to 6.00.
As for `CN(c1cc(Oc2ccc(-n3ncn(Cc4c(F)cccc4F)c3=O)cc2)ccn1)C1CC1` [Example 485, 2-(4-((2-(cyclopropyl(methyl)amino)pyridin-4-yl)oxy)phenyl)-4-(2,6-difluorobenzyl)-2,4-dihydro-3H-1,2,4-triazol-3-one], the pIC50 under setting [2] is 6.00 to 7.00.
Same read-out and setting: the result for `Cc1nc(C(=O)N(C)C)sc1Oc1ccc(-n2ncn(Cc3c(F)cccc3F)c2=O)cc1F` [Example 611, 5-(4-(4-(2,6-difluorobenzyl)-5-oxo-4,5-dihydro-1H-1,2,4-triazol-1-yl)-2-fluorophenoxy)-N,N,4-trimethylthiazole-2-carboxamide] reads greater than 7.00.
For `NC[C@H]1CCN1c1cc(Oc2ccc(-n3ncn(Cc4c(F)cccc4F)c3=O)cc2F)c(F)cn1` [Example 375, (R)-2-(4-((2-(2-(aminomethyl)azetidin-1-yl)-5-fluoropyridin-4-yl)oxy)-3-fluorophenyl)-4-(2,6-difluorobenzyl)-2,4-dihydro-3H-1,2,4-triazol-3-one], the pIC50 under setting [1] was greater than 7.00.
On to `CC1(C#N)CN(c2nccc(Oc3ccc(-n4ncn(Cc5c(F)cccc5F)c4=O)cc3Cl)c2F)C1` [Example 224, 1-(4-(2-chloro-4-(4-(2,6-difluorobenzyl)-5-oxo-4,5-dihydro-1H-1,2,4-triazol-1-yl)phenoxy)-3-fluoropyridin-2-yl)-3-methylazetidine-3-carbonitrile], for which the pIC50 under setting [1] is greater than 7.00.
On the same count and under the same terms, the result for `Cc1nc(C(N)C(F)F)sc1Oc1ccc(-n2ncn(Cc3c(F)cccc3F)c2=O)cc1F` (centres unmarked) [Example 447, 2-(4-((2-(1-amino-2,2-difluoroethyl)-4-methylthiazol-5-yl)oxy)-3-fluorophenyl)-4-(2,6-difluorobenzyl)-2,4-dihydro-3H-1,2,4-triazol-3-one] reads greater than 7.00.
Regarding `Cc1nc(Br)sc1Oc1ccc(-n2ncn(Cc3ccccc3C#N)c2=O)cc1F` [Example 6, 2-((1-(4-((2-bromo-4-methylthiazol-5-yl)oxy)-3-fluorophenyl)-5-oxo-1-5-dihydro-4H-1,2,4-triazol-4-yl)methyl)benzonitrile], the pIC50 under setting [4] is 6.00 to 7.00.
For the compound `C[C@H]1[C@H](N)CN1c1cc(Oc2ccc(-n3ncn(Cc4c(F)cccc4F)c3=O)cc2F)c(F)cn1` [Example 377, 2-(4-((2-((2S,3R)-3-amino-2-methylazetidin-1-yl)-5-fluoropyridin-4-yl)oxy)-3-fluorophenyl)-4-(2,6-difluorobenzyl)-2,4-dihydro-3H-1,2,4-triazol-3-one], the pIC50 under setting [1] is greater than 7.00.
Turning to `Cc1nc(C#N)sc1Oc1ccc(-n2ncn(Cc3c(F)cccc3F)c2=O)cc1` [Example 87, 5-(4-(4-(2,6-difluorobenzyl)-5-oxo-4,5-dihydro-1H-1,2,4-triazol-1-yl)phenoxy)-4-methylthiazole-2-carbonitrile], the pIC50 under setting [4] is greater than 7.00.
As for `Cc1ncsc1OC1CCC(n2nc3n(c2=O)[C@H](c2ccccc2)CC3)CC1` (single isomer, unassigned) [Example 636], under setting [3], the pIC50 was 6.00 to 7.00.
Consider `Nc1cnc(Cl)cc1Oc1ccc(-n2ncn(Cc3c(F)cccc3F)c2=O)cc1` [Example 441, 2-(4-((5-amino-2-chloropyridin-4-yl)oxy)phenyl)-4-(2,6-difluorobenzyl)-2,4-dihydro-3H-1,2,4-triazol-3-one], for which, under setting [1], the pIC50 is greater than 7.00.
Take `CCOC1(C)CN(c2nccc(Oc3ccc(-n4ncn(Cc5c(F)cccc5F)c4=O)cc3Cl)c2F)C1` [Example 502, 2-(3-chloro-4-((2-(3-ethoxy-3-methylazetidin-1-yl)-3-fluoropyridin-4-yl)oxy)phenyl)-4-(2,6-difluorobenzyl)-2,4-dihydro-3H-1,2,4-triazol-3-one]: under setting [2], the pIC50 was greater than 7.00.
In the case of `Cc1nc(N2CC(C)(C#N)C2)nn1Cc1ccc(-n2ncn(Cc3c(F)cccc3F)c2=O)cc1` [Example 665, 1-(1-(4-(4-(2,6-difluorobenzyl)-5-oxo-4,5-dihydro-1H-1,2,4-triazol-1-yl)benzyl)-5-methyl-1H-1,2,4-triazol-3-yl)-3-methylazetidine-3-carbonitrile], the pIC50 under setting [3] is 5.00 to 6.00.
In the case of `C[C@H]1[C@@H](N)CN1c1cc(Oc2ccc(-n3ncn(Cc4c(F)cccc4F)c3=O)cc2F)c(Cl)cn1` [Example 425, 2-(4-((2-((2S,3S)-3-amino-2-methylazetidin-1-yl)-5-chloropyridin-4-yl)oxy)-3-fluorophenyl)-4-(2,6-difluorobenzyl)-2,4-dihydro-3H-1,2,4-triazol-3-one], under setting [1], the pIC50 is greater than 7.00.
In the case of `Cc1c(I)ncn1Cc1ccc(-n2ncn(Cc3c(F)cccc3F)c2=O)cc1` [Example 539, 4-(2,6-difluorobenzyl)-2-(4-((4-iodo-5-methyl-1H-imidazol-1-yl)methyl)phenyl)-2,4-dihydro-3H-1,2,4-triazol-3-one], the pIC50 under setting [2] was greater than 7.00.
